Data: the NIST ThermoML archive (doi:10.1021/je200721d)

Assay: xn = mol fraction of the nth substance listed
Conditions: Liquid, Vibrating tube method

CCCCCCCC [octane] + CCCCCC
Conditions	mass density [kg/m3]
323.1 K, 10000 kPa, x2 = 0.7995	656.41
323.1 K, 11000 kPa, x2 = 0.7995	657.51
323.1 K, 12000 kPa, x2 = 0.7995	658.59
323.1 K, 13000 kPa, x2 = 0.7995	659.66
323.1 K, 14000 kPa, x2 = 0.7995	660.72
323.1 K, 15000 kPa, x2 = 0.7995	661.75
323.1 K, 16000 kPa, x2 = 0.7995	662.76
323.1 K, 17000 kPa, x2 = 0.7995	663.74
323.1 K, 18000 kPa, x2 = 0.7995	664.69
323.1 K, 19000 kPa, x2 = 0.7995	665.64
323.1 K, 20000 kPa, x2 = 0.7995	666.56
323.1 K, 21000 kPa, x2 = 0.7995	667.44
323.1 K, 22000 kPa, x2 = 0.7995	668.32
323.1 K, 23000 kPa, x2 = 0.7995	669.16
323.1 K, 24000 kPa, x2 = 0.7995	669.96
323.1 K, 25000 kPa, x2 = 0.7995	670.76
332.95 K, 1000 kPa, x2 = 0.5749	649.41
332.95 K, 2000 kPa, x2 = 0.5749	650.55
332.95 K, 3000 kPa, x2 = 0.5749	651.69
332.95 K, 4000 kPa, x2 = 0.5749	652.87
332.95 K, 5000 kPa, x2 = 0.5749	654.06
332.95 K, 6000 kPa, x2 = 0.5749	655.21
332.95 K, 7000 kPa, x2 = 0.5749	656.35
332.95 K, 8000 kPa, x2 = 0.5749	657.49
332.95 K, 9000 kPa, x2 = 0.5749	658.63
332.95 K, 10000 kPa, x2 = 0.5749	659.75
332.95 K, 11000 kPa, x2 = 0.5749	660.86
332.95 K, 12000 kPa, x2 = 0.5749	661.96
332.95 K, 13000 kPa, x2 = 0.5749	663.04
332.95 K, 14000 kPa, x2 = 0.5749	664.1
332.95 K, 15000 kPa, x2 = 0.5749	665.14
332.95 K, 16000 kPa, x2 = 0.5749	666.16
332.95 K, 17000 kPa, x2 = 0.5749	667.18
332.95 K, 18000 kPa, x2 = 0.5749	668.14
332.95 K, 19000 kPa, x2 = 0.5749	669.09
332.95 K, 20000 kPa, x2 = 0.5749	670.02
332.95 K, 21000 kPa, x2 = 0.5749	670.93
332.95 K, 22000 kPa, x2 = 0.5749	671.82
332.95 K, 23000 kPa, x2 = 0.5749	672.7
332.95 K, 24000 kPa, x2 = 0.5749	673.55
332.95 K, 25000 kPa, x2 = 0.5749	674.35
333.01 K, 1000 kPa, x2 = 0.9308	629.03
333.01 K, 2000 kPa, x2 = 0.9308	630.32
333.01 K, 3000 kPa, x2 = 0.9308	631.62
333.01 K, 4000 kPa, x2 = 0.9308	632.91
333.01 K, 5000 kPa, x2 = 0.9308	634.2
333.01 K, 6000 kPa, x2 = 0.9308	635.48
